Here are results for eleven molecules from patent US20140135310A1, “SULPHONAMIDE DERIVATIVES OF ALICYCLIC AMINES FOR THE TREATMENT OF CENTRAL NERVOUS SYSTEM DISEASES” (Adamed Sp. z o.o., priority 2011, published 2014).

A word on the inhibition: it is the drop in the measured response relative to a control, in per cent. As a reminder, the Ki is the equilibrium dissociation constant of an inhibitor or competing ligand from its target.

Test [1] deals with dopaminergic receptors D2 (Homo sapiens, UniProt P14416). Briefly: Radioligand binding assay, dopaminergic D2 receptors. In outline:
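Scintillation read-out. Specific = total − nonspecific (excess cold ligand). Data as % of control specific binding / % inhibition; IC50 by Hill fit; Ki = IC50/(1+L/KD), KD from Scatchard plot.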

A further test deals with T1, receptors D4.4 (Homo sapiens, UniProt P21917).
T1 sequence (P21917 1-419): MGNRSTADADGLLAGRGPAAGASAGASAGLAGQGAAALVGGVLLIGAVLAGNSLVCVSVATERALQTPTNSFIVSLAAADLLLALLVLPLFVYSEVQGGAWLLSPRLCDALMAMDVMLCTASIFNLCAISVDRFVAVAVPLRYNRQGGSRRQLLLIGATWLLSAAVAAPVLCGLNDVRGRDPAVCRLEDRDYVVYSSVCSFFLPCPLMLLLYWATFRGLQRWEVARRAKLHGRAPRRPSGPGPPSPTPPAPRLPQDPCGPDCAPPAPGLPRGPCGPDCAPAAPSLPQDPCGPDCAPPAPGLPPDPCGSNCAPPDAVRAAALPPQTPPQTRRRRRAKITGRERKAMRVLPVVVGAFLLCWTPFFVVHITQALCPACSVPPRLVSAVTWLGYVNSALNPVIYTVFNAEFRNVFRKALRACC
Briefly: Radioligand binding assay, dopaminergic D4 (D4.4) receptors. The settings on record: test compound 1×10^−6 M. From the text:
(§1) The specific ligand binding to the receptors is defined as the difference between the total binding and the non-specific binding determined in the presence of the excess of unlabelled ligand.
(§2) The results are expressed as a percent of control specific binding ((measured specific binding/control specific binding)×100) and as a percent inhibition of control specific binding (100−((measured specific binding/control specific binding)×100)) obtained in the presence of the test compounds. The specific ligand binding to the receptors is defined as the difference between the total binding and the nonspecific binding determined in the presence of an excess of unlabelled ligand. Scintillation counting was the method of detection of ligand binding. The IC50 values (concentration causing a half-maximal inhibition of control specific binding) were determined by non-linear regression analysis of the competition curves generated with mean replicate values using Hill equation curve fitting (Y=D+[(A−D)/(1+(C/C50)nH)], where Y=specific binding, D=minimum specific binding, A=maximum specific binding, C=compound concentration, C50=IC50, and nH=slope factor). This analysis was performed using a software developed at Cerep (Hill software) and validated by comparison with data generated by the commercial software SigmaPlot® 4.0 for Windows® (© 1997 by SPSS Inc.). The inhibition constants (Ki) were calculated using the Cheng Prusoff equation (Ki=IC50/(1+(L/KD)), where L=concentration of radioligand in the assay, and KD=affinity of the radioligand for the receptor). A scatchard plot was used to determine the Kd.
Experimental conditions for tests are given in Table 1, the results of tests for representative compounds are given in Tables 2a and 2b (receptors D2 and D3) and in Table 3 (receptors D4).

Another test concerns the target T2, 5-HT2C receptor (Homo sapiens, UniProt P28335).
T2 construct: expressed in transfected cells; host or cells: HEK-293 cells
T2 sequence (P28335 33-458): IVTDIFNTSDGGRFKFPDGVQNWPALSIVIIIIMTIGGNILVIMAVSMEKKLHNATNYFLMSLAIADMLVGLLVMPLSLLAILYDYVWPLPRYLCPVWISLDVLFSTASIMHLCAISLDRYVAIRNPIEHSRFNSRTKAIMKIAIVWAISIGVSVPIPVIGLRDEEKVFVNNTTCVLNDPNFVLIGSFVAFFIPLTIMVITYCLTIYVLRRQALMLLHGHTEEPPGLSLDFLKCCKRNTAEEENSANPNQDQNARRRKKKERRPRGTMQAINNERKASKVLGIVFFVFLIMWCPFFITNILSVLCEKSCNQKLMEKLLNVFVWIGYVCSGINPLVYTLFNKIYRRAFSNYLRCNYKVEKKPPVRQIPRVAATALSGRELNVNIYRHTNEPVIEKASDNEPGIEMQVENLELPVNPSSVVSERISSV
Nature of the test: Radioligand binding assay, serotoninergic 5-HT2C receptors. The settings on record: test compound 1×10^−6 M.
Source text: as §1, §2
Experimental conditions for tests are given in Table 4, and results of tests for representative compounds of the invention are given in Table 5a and 5b (receptors 5-HT1A, 5-HT2A, 5-HT6 and 5-HT7) and in Table 6 (receptors 5-HT2C).

A further test concerns the target T3, 5-HT6 receptor (Homo sapiens, UniProt P50406).
T3 construct: purchased PerkinElmer
Nature of the test: Radioligand binding assay, serotoninergic 5-HT6 receptors. The settings on record: for Ki: read-out: Inhibition constants Ki, 5-HT6. Summed up:
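Values are Ki from Cheng–Prusoff, taking IC50 from Hill nonlinear regression of competition curves and KD from a Scatchard plot. Specific binding was total minus binding with excess unlabelled ligand. Radioligand displacement was detected by scintillation counting, and data were also reported as percent of control specific binding.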

The subject of test [2] is α1 adrenergic receptors (rat cerebral cortex). Briefly: Radioligand binding assay, adrenergic α1 receptors. The settings on record: test compound 1×10^−6 M. In outline:
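Values derive from radioligand displacement, with non-specific binding defined by excess cold ligand and detection by scintillation. Hill-fit IC50s were converted to Ki via Cheng-Prusoff using Scatchard-derived Kd; percent inhibition of control specific binding also reported.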

A further test deals with T4, M3 muscarinic receptors (Homo sapiens, UniProt P20309).
T4 construct: expressed in transfected cells; host or cells: CHO cells
T4 sequence (P20309 whole entry): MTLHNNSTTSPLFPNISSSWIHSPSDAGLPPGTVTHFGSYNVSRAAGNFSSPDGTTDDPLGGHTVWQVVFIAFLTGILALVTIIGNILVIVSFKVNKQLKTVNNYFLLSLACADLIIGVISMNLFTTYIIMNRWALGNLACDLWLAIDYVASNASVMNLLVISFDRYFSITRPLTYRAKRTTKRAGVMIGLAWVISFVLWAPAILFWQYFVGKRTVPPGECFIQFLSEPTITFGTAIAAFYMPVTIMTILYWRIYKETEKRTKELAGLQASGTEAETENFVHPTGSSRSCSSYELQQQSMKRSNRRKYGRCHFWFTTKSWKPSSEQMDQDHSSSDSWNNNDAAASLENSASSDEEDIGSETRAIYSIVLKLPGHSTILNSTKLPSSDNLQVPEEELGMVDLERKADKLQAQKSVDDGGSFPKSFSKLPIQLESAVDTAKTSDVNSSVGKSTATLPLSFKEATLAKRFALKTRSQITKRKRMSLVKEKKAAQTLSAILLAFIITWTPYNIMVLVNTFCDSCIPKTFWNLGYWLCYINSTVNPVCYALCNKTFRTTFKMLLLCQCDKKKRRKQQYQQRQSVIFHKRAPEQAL
Nature of the test: Radioligand binding assay, muscarinic M3 receptors. The settings on record: test compound 1×10^−6 M.
Source text: as §1, §2
Experimental conditions for tests are given in Table 10, and results of tests for representative compounds are given in Table 11.

The target in test [3] is T5, serotonin transporter (SERT) (Homo sapiens, UniProt P31645).
T5 construct: expressed in transfected cells; host or cells: CHO cells
T5 sequence (P31645 whole entry): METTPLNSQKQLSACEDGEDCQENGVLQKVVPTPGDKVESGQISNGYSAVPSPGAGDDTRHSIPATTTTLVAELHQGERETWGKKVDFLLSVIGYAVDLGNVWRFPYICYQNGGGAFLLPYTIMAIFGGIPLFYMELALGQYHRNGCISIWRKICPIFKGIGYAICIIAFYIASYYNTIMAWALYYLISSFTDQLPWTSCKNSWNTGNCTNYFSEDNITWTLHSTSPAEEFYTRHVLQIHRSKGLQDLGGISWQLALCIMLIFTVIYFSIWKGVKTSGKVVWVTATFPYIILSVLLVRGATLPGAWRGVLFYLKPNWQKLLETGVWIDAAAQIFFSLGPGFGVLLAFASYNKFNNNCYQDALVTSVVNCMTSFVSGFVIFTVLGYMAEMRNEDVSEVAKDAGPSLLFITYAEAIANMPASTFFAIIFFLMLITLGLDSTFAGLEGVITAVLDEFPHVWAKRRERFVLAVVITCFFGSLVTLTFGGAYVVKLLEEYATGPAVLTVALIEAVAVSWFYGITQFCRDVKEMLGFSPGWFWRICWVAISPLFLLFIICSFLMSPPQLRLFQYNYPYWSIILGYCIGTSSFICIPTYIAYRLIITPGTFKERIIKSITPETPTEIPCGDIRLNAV
Briefly: Radioligand binding assay, serotonin transporter (SERT). Summed up:
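Values are derived from competition curves fitted by the Hill equation to give IC50, then converted to Ki by Cheng-Prusoff with radioligand Kd from Scatchard analysis. Specific binding equals total minus non-specific (excess cold ligand), counted by scintillation, and is also expressed as percent inhibition of control.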

Where [4] appears, read: binding assay, test compound 1×10^−6 M.
Setting [5] is: binding assay result in %, Table 5a.

T3 sequence (P50406 whole entry): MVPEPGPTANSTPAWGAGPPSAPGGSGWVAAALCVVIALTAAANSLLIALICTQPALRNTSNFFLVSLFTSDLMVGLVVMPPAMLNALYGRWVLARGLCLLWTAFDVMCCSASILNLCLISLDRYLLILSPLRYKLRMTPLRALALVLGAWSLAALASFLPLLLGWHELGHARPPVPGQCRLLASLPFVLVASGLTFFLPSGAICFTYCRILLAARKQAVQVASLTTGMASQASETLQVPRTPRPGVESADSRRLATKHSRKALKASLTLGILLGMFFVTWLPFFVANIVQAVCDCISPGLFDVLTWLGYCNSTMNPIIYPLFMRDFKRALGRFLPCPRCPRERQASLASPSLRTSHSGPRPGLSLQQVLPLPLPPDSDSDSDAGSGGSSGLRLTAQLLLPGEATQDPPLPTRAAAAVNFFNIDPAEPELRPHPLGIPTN
dopaminergic receptors D2, sequence (P14416 whole entry): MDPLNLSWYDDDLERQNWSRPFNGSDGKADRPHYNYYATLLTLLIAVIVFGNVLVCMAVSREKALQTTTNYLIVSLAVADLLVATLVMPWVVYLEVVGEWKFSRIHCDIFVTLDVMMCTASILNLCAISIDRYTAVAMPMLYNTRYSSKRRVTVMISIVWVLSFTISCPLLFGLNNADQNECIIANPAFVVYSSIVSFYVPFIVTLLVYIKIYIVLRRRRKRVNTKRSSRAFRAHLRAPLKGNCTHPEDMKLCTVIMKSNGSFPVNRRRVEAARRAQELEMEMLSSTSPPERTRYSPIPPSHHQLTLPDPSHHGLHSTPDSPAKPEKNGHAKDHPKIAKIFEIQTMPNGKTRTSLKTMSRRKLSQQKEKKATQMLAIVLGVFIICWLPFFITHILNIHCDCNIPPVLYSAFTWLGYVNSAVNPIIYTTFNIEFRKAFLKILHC

For the molecule `O=S(=O)(NC1CCN(CCCc2c[nH]c3ccc(Cl)cc23)C1)c1cccc(F)c1` (stereo not drawn) [Compound 82, N-[1-[3-(5-Chloro-1H-indol-3-yl)propyl]pyrrolidin-3-yl]-3-fluoro-benzene-sulphonamide], the inhibition at 1 µM was 90% in test [1] (setting [4]); 94% at receptors D4.4; 82% on 5-HT2C receptor; 93% at 5-HT6 receptor (setting [5]); 9% on M3 muscarinic receptors; 100% in test [3] (setting [4]). Further, the Ki is 0.037 µM at 5-HT6 receptor and 0.0013 µM in test [3] (read-out: Inhibition constants Ki for SERT, SERT). The “α1 [%]” value in test [2] is given as 43%.

On to `Cn1ccc2cc(S(=O)(=O)NCC3CCN(CCOc4cccc5c4OCCO5)C3)ccc21` (stereo not drawn) [Compound 308, N-[[1-[2-(2,3-Dihydro-1,4-benzodioxin-5-yloxy)ethyl]pyrrolidin-3-yl]methyl]-1-methyl-indole-5-sulphonamide], for which the inhibition at 1 µM in test [1] (setting [4]) was determined as 57%; on receptors D4.4 it was 26%; at 5-HT2C receptor, 61%; at 5-HT6 receptor (setting [5]), 44%; at M3 muscarinic receptors, 13%; in test [3] (setting [4]) it was 95%. Also, the “α1 [%]” value in test [2] came to 69%.

`O=S(=O)(NC1CCN(CCCc2noc3cc(F)ccc23)C1)c1ccc(Cl)c(F)c1` (stereo not drawn) [Compound 11, 4-Chloro-3-fluoro-N-[1-[3-(6-fluoro-1,2-benzoxazol-3-yl)propyl]-pyrrolidin-3-yl]benzene-sulphonamide]: the inhibition at 1 µM in test [1] (setting [4]) is 89%; on receptors D4.4 it was 92%; at 5-HT2C receptor, 27%; on 5-HT6 receptor (setting [5]), 94%; on M3 muscarinic receptors, 3%; in test [3] (setting [4]), -6%. Moreover, the “α1 [%]” value in test [2] came to 70%.

As for `O=S(=O)(NC1CCN(CCCc2noc3cc(F)ccc23)C1)c1cccc2ccccc12` (stereo not drawn) [Compound 20, N-[1-[3-(6-Fluoro-1,2-benzoxazol-3-yl)propyl]pyrrolidin-3-yl]naphthalene-1-sulphonamide], the inhibition at 1 µM is 95% in test [1] (setting [4]); 100% at receptors D4.4; 33% on 5-HT2C receptor; 97% at 5-HT6 receptor (setting [5]); -7% on M3 muscarinic receptors; 6% in test [3] (setting [4]). In addition, the “α1 [%]” value in test [2] amounted to 86%.

Regarding `O=S(=O)(NCC1CN(CCOc2cccc3c2OCCO3)C1)c1cc2ccccc2o1` [Compound 186, N-[[1-[2-(2,3-Dihydro-1,4-benzodioxin-5-yloxy)ethyl]azetidin-3-yl]methyl]-benzofuran-2-sulphonamide], the inhibition at 1 µM in test [1] (setting [4]) is 77%; at receptors D4.4, 55%; on 5-HT2C receptor it was 79%; at 5-HT6 receptor (setting [5]), 32%; on M3 muscarinic receptors, -9%; in test [3] (setting [4]), 39%. Besides, the “α1 [%]” value in test [2] stood at 80%.

Consider `Cc1ccc2sc(S(=O)(=O)NC3CCN(CCCc4noc5cc(F)ccc45)C3)cc2c1` (stereo not drawn) [Compound 226, N-[1-[3-(6-Fluoro-1,2-benzoxazol-3-yl)propyl]pyrrolidin-3-yl]-5-methylbenzothiophene-2-sulphonamide], for which the inhibition at 1 µM in test [1] (setting [4]) turned out to be 99%; at receptors D4.4, 69%; at 5-HT2C receptor, 89%; on 5-HT6 receptor (setting [5]), 92%; on M3 muscarinic receptors, 8%; in test [3] (setting [4]) it was 54%. Moreover, the “α1 [%]” value in test [2] turned out to be 73%.

As to `Cc1cc(S(=O)(=O)NCC2CCN(CCOc3cccc4c3OCCO4)C2)c(C)s1` (stereo not drawn) [Compound 312, N-[[1-[2-(2,3-Dihydro-1,4-benzodioxin-5-yloxy)ethyl]pyrrolidin-3-yl]methyl]-2,5-dimethylthiophene-3-sulphonamide], the inhibition at 1 µM in test [1] (setting [4]) was 36%; on receptors D4.4 it was 52%; at 5-HT2C receptor, 55%; at 5-HT6 receptor (setting [5]), 19%; on M3 muscarinic receptors it was 10%; in test [3] (setting [4]) it was 87%. Further, in test [2], the “α1 [%]” value amounted to 65%.

On to `Cc1cc(S(=O)(=O)NC2CCN(CCCc3noc4cc(F)ccc34)C2)c(C)s1` (stereo not drawn) [Compound 221, N-[1-[3-(6-Fluoro-1,2-benzoxazol-3-yl)propyl]pyrrolidin-3-yl]-2,5-dimethyl-thiophene-3-sulphonamide], for which the inhibition at 1 µM in test [1] (setting [4]) was 97%; on receptors D4.4 it was 93%; at 5-HT2C receptor it was 81%; at 5-HT6 receptor (setting [5]) it was 92%; on M3 muscarinic receptors, 12%; in test [3] (setting [4]), 67%. Also, the “α1 [%]” value in test [2] is listed as 85%.

`COc1ccc2cc(S(=O)(=O)N[C@H]3CCN(CCCc4noc5cc(F)ccc45)C3)ccc2c1` [Compound 231, N-[(3S)-1-[3-(6-Fluoro-1,2-benzoxazol-3-yl)propyl]pyrrolidin-3-yl]-6-methoxy-naphthalene-2-sulphonamide]: the inhibition at 1 µM was found to be 95% in test [1] (setting [4]); 89% on receptors D4.4; 75% at 5-HT2C receptor; 86% at 5-HT6 receptor (setting [5]); 22% at M3 muscarinic receptors; 63% in test [3] (setting [4]). The Ki in test [1] (read-out: Inhibition constants Ki for D2 receptors, D2) amounted to 0.0064 µM; on 5-HT6 receptor it was 0.079 µM. Also, the “α1 [%]” value in test [2] is reported as 79%.

In the case of `O=S(=O)(NC1CCN(CCCc2noc3cc(F)ccc23)C1)c1csc2ccccc12` (stereo not drawn) [Compound 26, N-[1-[3-(6-Fluoro-1,2-benzoxazol-3-yl)propyl]pyrrolidin-3-yl]-benzothiophene-3-sulphonamide], the inhibition at 1 µM came to 98% in test [1] (setting [4]); 101% on receptors D4.4; 51% at 5-HT2C receptor; 98% at 5-HT6 receptor (setting [5]); 11% at M3 muscarinic receptors; 66% in test [3] (setting [4]). Besides, the “α1 [%]” value in test [2] came to 87%.

“N-[1-[3-(6-Fluoro-1,2-benzoxazol-3-yl)propyl]pyrrolidin-3-yl]-1-methyl-imidazole-4-sulphonamide [Compound 217]”: the “D2 [%]” value in test [1] (setting [4]) was 96%. At receptors D4.4, the “D4.4 [%]” value is 72%. The “5-HT2C [%]” value at 5-HT2C receptor was 67%. Moreover, at 5-HT6 receptor (setting [5]), the “5-HT6 [%]” value came out at 98%. Further, in test [2], the “α1 [%]” value was found to be 40%. Besides, at M3 muscarinic receptors, the “M3 [%]” value stood at 6%. For the same molecule, the “SERT [%]” value in test [3] (setting [4]) worked out at 90%.
